From US9073853B2, “Cycloalkane carboxylic acid derivatives as CXCR3 receptor antagonists” (Sanofi, priority 2011, dated 2015)
Structures can show the parent of a compound that is named as a salt.

target: human CXCR3-A receptor (Homo sapiens (Human), UniProt P49682); assay: 125I-CXCL10 competition radioligand binding assay; conditions: displacement of 125I-CXCL10 from membranes of CHO cells expressing human recombinant CXCR3-A
Description: IC50 values were determined for the test compounds and used to explore the structure-activity relationships (SAR). […] This cell line was registered in Sanofi-Aventis cell line bank. […] Cell suspension was diluted with PBS and cells were collected with centrifugation at 230 g for 10 minutes at 10° C. with a Juan centrifuge. […] The supernatant was carefully collected and centrifuged at 100,000×g for 60 min at 4° with a Beckman Avanti J30 centrifuge. […] Protein concentration was determined with Bio-Rad protein assay (Cat No 500-0006). Membrane aliquots were stored at -80° C. […] The composition of the binding assay buffer was determined in a course of detailed optimization procedure. […] Binding reaction was initiated by adding of membranes (10-20 μg proteins, approximately 5×10^5 cell equivalents) to the reaction mixture. After 60 minutes of incubation at 25° C. the reaction was terminated by rapid filtration over GF/B glass fiber filters that were pre-soaked with 0.5% polyethyleneimine (Fluka Analytical, P3143) for 1 hour, using a Skatron cell harvester device. Filters then were washed with 8 ml of ice-cold wash buffer (modified binding buffer in which BSA was omitted and the concentration of NaCl was adjusted to 500 mM concentration). The radioactivity retained on the filters was measured by a Wizard 1470 Automatic Gamma counter. Test compounds were dissolved prior to the binding assay at a concentration of 10 mM in DMSO. Stock solutions were stored at -20° C. for not longer than 3 months. […] Before adding these solutions of test compound to the binding reaction mixture, an intermediate dilution procedure was applied, in which 30 μL of each solution sample was transferred into a dilution tube containing 970 μL of binding assay buffer. […] The IC50 values and Hill slopes for competition binding data were obtained using nonlinear four-parametric curve fitting method.

Chain of human CXCR3-A receptor (P49682 whole entry): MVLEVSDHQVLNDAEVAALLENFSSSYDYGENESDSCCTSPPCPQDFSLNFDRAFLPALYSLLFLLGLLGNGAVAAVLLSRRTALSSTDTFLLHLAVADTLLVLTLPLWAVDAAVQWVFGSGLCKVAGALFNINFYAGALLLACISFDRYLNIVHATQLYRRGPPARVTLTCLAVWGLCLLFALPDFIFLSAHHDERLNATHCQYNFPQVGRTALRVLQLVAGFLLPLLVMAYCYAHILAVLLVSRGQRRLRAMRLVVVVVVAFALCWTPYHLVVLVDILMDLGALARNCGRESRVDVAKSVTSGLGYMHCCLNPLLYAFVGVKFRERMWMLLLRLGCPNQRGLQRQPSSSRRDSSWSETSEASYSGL

| Compound | IC50 [µM] |
| --- | --- |
| COc1cc(CN(C[C@H]2CC[C@@H](C(=O)O)CC2)C2CCc3cc(Cl)ccc32)ccc1OCCN1C(=O)CCC1=O (stereo partly drawn) [Example 13, cis-4-[((5-Chloro-indan-1-yl)-{4-[2-(2,5-dioxo-pyrrolidin-1-yl)-ethoxy]-3-methoxy-benzyl}-amino)-methyl]-cyclohexane-carboxylic acid] | 1.66 |
| COc1cc(CN(C[C@H]2CC[C@H](C(=O)O)CC2)[C@H]2CCc3c2ccc(Cl)c3Cl)ccc1OCCN1C(=O)CCC1=O [Example 14, trans-4-[(((S)-4,5-Dichloro-indan-1-yl)-{4-[2-(2,5-dioxo-pyrrolidin-1-yl)-ethoxy]-3-methoxy-benzyl}-amino)-methyl]-cyclohexanecarboxylic acid hydrochloride] | 0.025 |
| CC(c1ccc2c(c1)CCO2)N(Cc1ccc(OCCN2C(=O)CCC2=O)c(Cl)c1)C[C@H]1CC[C@H](C(=O)O)CC1 (stereo partly drawn) [Example 16, trans-4-({{3-Chloro-4-[2-(2,5-dioxo-pyrrolidin-1-yl)-ethoxy]-benzyl}-[1-(2,3-dihydro-benzofuran-5-yl)-ethyl]-amino}-methyl)-cyclohexanecarboxylic acid] | 0.035 |
| Cc1cc(CN(C[C@H]2CC[C@H](C(=O)O)CC2)C(C)c2ccc3c(c2)CCO3)ccc1OCCN1C(=O)CCC1=O (stereo partly drawn) [Example 17, trans-4-[([1-(2,3-Dihydro-benzofuran-5-yl)-ethyl]-{4-[2-(2,5-dioxo-pyrrolidin-1-yl)-ethoxy]-3-methyl-benzyl}-amino)-methyl]-cyclohexanecarboxylic acid] | 0.044 |
| CCC(c1ccc2c(c1)CCO2)N(Cc1ccc(OCCN2C(=O)CCC2=O)c(OC)c1)C[C@H]1CC[C@H](C(=O)O)CC1 (stereo partly drawn) [Example 18, trans-4-[([1-(2,3-Dihydro-benzofuran-5-yl)-propyl]-{4-[2-(2,5-dioxo-pyrrolidin-1-yl)-ethoxy]-3-methoxy-benzyl}-amino)-methyl]-cyclohexanecarboxylic acid] | 0.064 |
| CC(c1ccc2c(c1)CCO2)N(Cc1ccc(OCCN2C(=O)CN(C)C2=O)c(Cl)c1)C[C@H]1CC[C@H](C(=O)O)CC1 (stereo partly drawn) [Example 22, trans-4-({{3-Chloro-4-[2-(3-methyl-2,5-dioxo-imidazolidin-1-yl)-ethoxy]-benzyl}-[1-(2,3-dihydro-benzofuran-5-yl)-ethyl]-amino}-methyl)-cyclohexanecarboxylic acid] | 0.112 |
| COc1cc(CN(C[C@H]2CC[C@H](C(=O)O)CC2)C2CCc3cc(Cl)ccc32)ccc1OCCN1C(=O)CSC1=O (stereo partly drawn) [Example 24, trans-4-[((5-Chloro-indan-1-yl)-{4-[2-(2,4-dioxo-thiazolidin-3-yl)-ethoxy]-3-methoxy-benzyl}-amino)-methyl]-cyclohexanecarboxylic acid] | 0.058 |
| COc1cc(CN(C[C@H]2CC[C@H](C(=O)O)CC2)C(C)c2ccc(Cl)c(C)c2)ccc1OCCN1C(=O)CCC1=O (stereo partly drawn) [Example 25, trans-4-[([1-(4-Chloro-3-methyl-phenyl)-ethyl]-{4-[2-(2,5-dioxo-pyrrolidin-1-yl)-ethoxy]-3-methoxy-benzyl}-amino)-methyl]-cyclohexanecarboxylic acid] | 0.025 |
| COc1cc(CN(C[C@H]2CC[C@H](C(=O)O)CC2)[C@@H](C)c2ccc(Cl)c(C)c2)ccc1OCCN1C(=O)CCC1=O [Example 26, trans-4-[([(S)-1-(4-Chloro-3-methyl-phenyl)-ethyl]-{4-[2-(2,5-dioxo-pyrrolidin-1-yl)-ethoxy]-3-methoxy-benzyl}-amino)-methyl]-cyclohexanecarboxylic acid] | 0.064 |
| CCC(c1ccc2c(c1)CCO2)N(Cc1ccc(OCCN2C(=O)CN(C)C2=O)c(OC)c1)C[C@H]1CC[C@H](C(=O)O)CC1 (stereo partly drawn) [Example 28, trans-4-[([1-(2,3-Dihydro-benzofuran-5-yl)-propyl]-{3-methoxy-4-[2-(3-methyl-2,5-dioxo-imidazolidin-1-yl)-ethoxy]-benzyl}-amino)-methyl]-cyclohexanecarboxylic acid] | 0.081 |
| C[C@@H](c1ccc(Cl)cc1)N(Cc1ccc(OCCN2C(=O)CCC2=O)c(Cl)c1)C[C@H]1CC[C@H](C(=O)O)CC1 [Example 32, trans-4-({{3-Chloro-4-[2-(2,5-dioxo-pyrrolidin-1-yl)-ethoxy]-benzyl}-[(S)-1-(4-chloro-phenyl)-ethyl]-amino}-methyl)-cyclohexanecarboxylic acid] | 0.123 |
| Cc1cc(CN(C[C@H]2CC[C@H](C(=O)O)CC2)C(C)c2ccc3c(c2)CCO3)ccc1OCCN1C(=O)CSC1=O (stereo partly drawn) [Example 33, trans-4-[([1-(2,3-Dihydro-benzofuran-5-yl)-ethyl]-{4-[2-(2,4-dioxo-thiazolidin-3-yl)-ethoxy]-3-methyl-benzyl}-amino)-methyl]-cyclohexanecarboxylic acid] | 0.042 |
| COc1cc(CN(C[C@H]2CC[C@H](C(=O)O)CC2)[C@@H](C)c2ccc(Cl)cc2)ccc1OCCN1C(=O)CSC1=O [Example 34, trans-4-[([(S)-1-(4-Chloro-phenyl)-ethyl]-{4-[2-(2,4-dioxo-thiazolidin-3-yl)-ethoxy]-3-methoxy-benzyl}-amino)-methyl]-cyclohexanecarboxylic acid] | 0.022 |
| COc1cc(CN(C[C@H]2CC[C@H](C(=O)O)CC2)C(C)c2ccc3c(c2)CCO3)ccc1/C=C/CN1C(=O)CCC1=O (stereo partly drawn) [Example 35, trans-4-[([1-(2,3-Dihydro-benzofuran-5-yl)-ethyl]-{4-[(E)-3-(2,5-dioxo-pyrrolidin-1-yl)-propenyl]-3-methoxy-benzyl}-amino)-methyl]-cyclohexanecarboxylic acid] | 1.43 |

Further compounds by falling IC50, results first:

| IC50 [µM] | Compound |
| --- | --- |
| 0.633 | O=C1CCC(=O)N1CCOc1ccc(CN(C[C@H]2CC[C@H](C(=O)O)CC2)C2CCc3cc(Cl)ccc32)cc1Cl (stereo partly drawn) [Example 21, trans-4-{[{3-Chloro-4-[2-(2,5-dioxo-pyrrolidin-1-yl)-ethoxy]-benzyl}-(5-chloro-indan-1-yl)-amino]-methyl}-cyclohexanecarboxylic acid] |
| 0.36 | Cc1cc(CN(C[C@H]2CC[C@H](C(=O)O)CC2)[C@@H]2CCc3cc(Cl)ccc32)ccc1OCCN1C(=O)CCC1=O [Example 31, trans-4-[(((R)-5-Chloro-indan-1-yl)-{4-[2-(2,5-dioxo-pyrrolidin-1-yl)-ethoxy]-3-methyl-benzyl}-amino)-methyl]-cyclohexanecarboxylic acid] |
| 0.15 | Cc1cc(CN(C[C@H]2CC[C@H](C(=O)O)CC2)C2CCc3cc(Cl)ccc32)ccc1OCCN1C(=O)CCC1=O (stereo partly drawn) [Example 29, trans-4-[((5-Chloro-indan-1-yl)-{4-[2-(2,5-dioxo-pyrrolidin-1-yl)-ethoxy]-3-methyl-benzyl}-amino)-methyl]-cyclohexanecarboxylic acid] |
| 0.116 | C[C@@H](c1ccc(Cl)cc1)N(Cc1ccc(OCCN2C(=O)CN(C)C2=O)c(Cl)c1)C[C@H]1CC[C@H](C(=O)O)CC1 [Example 23, trans-4-({{3-Chloro-4-[2-(3-methyl-2,5-dioxo-imidazolidin-1-yl)-ethoxy]-benzyl}-[(S)-1-(4-chloro-phenyl)-ethyl]-amino}-methyl)-cyclohexanecarboxylic acid] |
| 0.08 | COc1cc(CN(C[C@H]2CC[C@H](C(=O)O)CC2)[C@H](C)c2ccc(Cl)c(C)c2)ccc1OCCN1C(=O)CCC1=O [Example 27, trans-4-[([(R)-1-(4-Chloro-3-methyl-phenyl)-ethyl]-{4-[2-(2,5-dioxo-pyrrolidin-1-yl)-ethoxy]-3-methoxy-benzyl}-amino)-methyl]-cyclohexanecarboxylic acid] |
| 0.055 | COc1cc(CN(C[C@H]2CC[C@H](C(=O)O)CC2)C(C)c2ccc3c(c2)CCO3)ccc1OCCN1C(=O)COC1=O (stereo partly drawn) [Example 19, trans-4-[([1-(2,3-Dihydro-benzofuran-5-yl)-ethyl]-{4-[2-(2,4-dioxo-oxazolidin-3-yl)-ethoxy]-3-methoxy-benzyl}-amino)-methyl]-cyclohexanecarboxylic acid] |
| 0.053 | Cc1cc(CN(C[C@H]2CC[C@H](C(=O)O)CC2)[C@H]2CCc3cc(Cl)ccc32)ccc1OCCN1C(=O)CCC1=O [Example 30, trans-4-[(((S)-5-Chloro-indan-1-yl)-{4-[2-(2,5-dioxo-pyrrolidin-1-yl)-ethoxy]-3-methyl-benzyl}-amino)-methyl]-cyclohexanecarboxylic acid] |
| 0.037 | COc1cc(CN(C[C@H]2CC[C@H](C(=O)O)CC2)C(C)c2ccc3c(c2)CCO3)ccc1OCCN1C(=O)CSC1=O (stereo partly drawn) [Example 15, trans-4-[([1-(2,3-Dihydro-benzofuran-5-yl)-ethyl]-{4-[2-(2,4-dioxo-thiazolidin-3-yl)-ethoxy]-3-methoxy-benzyl}-amino)-methyl]-cyclohexanecarboxylic acid] |
| 0.013 | COc1cc(CN(C[C@H]2CC[C@H](C(=O)O)CC2)[C@H]2CCc3cc(Cl)ccc32)ccc1OCCN1C(=O)CCC1=O [Example 12, trans-4-[(((S)-5-Chloro-indan-1-yl)-{4-[2-(2,5-dioxo-pyrrolidin-1-yl)-ethoxy]-3-methoxy-benzyl}-amino)-methyl]-cyclohexanecarboxylic acid] |
